In publication PMC3913620, “Preclinical Evaluation of the Novel, Orally Bioavailable Selective Inhibitor of Nuclear Export (SINE) KPT-335 in Spontaneous Canine Cancer: Results of a Phase I Study” (PLoS ONE, 2014):
Several values for one entry are separate records, joined by “and”; a condition that tells them apart may be missing. Identical values can stand only once.

What was measured:
CLBL1 cells = assay: Annexin V apoptosis assay (flow cytometry), CLBL1; type: cell-based, canine; conditions: CLBL1, 100 nM, 24 hours
[1] = test system: primary canine DLBCL cells; assay: Annexin V apoptosis assay (flow cytometry), primary canine DLBCL; type: cell-based; conditions: primary canine DLBCL (sample #1), 100 nM, 24 hours
Procedure: Jurkat cells and primary canine DLBCL cells were cultured for 24 hours in the presence of 100 nM KPT-335 or dimethyl sulfoxide (DMSO). Cells were stained with Annexin V (eBiosciences, San Diego, CA) according to the manufacturer’s instruction. Flow cytometry was performed using a BD LSRII flow cytometer (BD Immunocytometry Systems, San Jose, CA) and results were analyzed using FlowJo software (Tree Star, Ashland, OR).

Oral bioavailability = type: in vivo; conditions: normal laboratory dogs
OCI-Ly3 DLBCL cells = assay: MTS cell viability assay, OCI-Ly3; type: cell-based, human; conditions: Homo sapiens, OCI-Ly3, 72 hours, read-out: IC50 (± S.D.), OCI-Ly3
Procedure: Cryopreserved tumor cells obtained from sterile lymph node biopsy samples from dogs with diffuse large B cell lymphoma (DLBCL) were cultured with 100 ng/mL of megaCD40L (Enzo Life Science, Plymouth Meeting, PA) as previously described, [27]. The human T-cell leukemia cell line, Jurkat, was from the American Type Culture Collection (ATCC, Manassas, VA) and cultured in RPMI1640 medium (Gibco/BRL, Grand Island, NY) containing 10% fetal bovine serum (FBS; Atlas Biologicals, Fort Collins, CO), 2-mercaptoethanol (Gibco/BRL), HEPES, L-glutamine, sodium pyruvate (Mediatech Inc., Manassas, VA), non-essential amino acids (Sigma Aldrich, St. Louis, MO), and Primocin (Invivogen, San Diego, CA). […]
Cell viability for lymphoid lines was determined by the MTS (3-(4, 5-dimethylthiazol-2-yl)-5-(3-carboxymethoxyphenyl)-2-(4-sulfophenyl)-2H-tetrazolium) assay using CellTiter 96® AQueous One Solution Cell Proliferation Assay Kit (Promega, Madison, WI). […] After 72 hours, 20 µL of MTS solution was added to each well and cells were incubated for another 4 hours before measuring absorbance at 490 nm using a Wallac Victor 1420 Multilabel Counter (Perkin Elmer, Waltham, MA). The IC50 of SINE was calculated using Prism 6 software (GraphPad Software, Inc., La Jolla, CA).

[2] = test system: dogs with spontaneous cancer (NHL, mast cell tumor, osteosarcoma); assay: Phase I dose escalation study, tumor response; type: in vivo
Procedure: This study was a Phase I dose escalating, open label assessment of the safety and biologic activity of KPT-335 in client owned dogs with spontaneous malignancies. Assessment of clinical toxicities and tumor response was performed at each visit. Dogs were evaluated for hematologic and biochemical toxicities every 7 days with routine bloodwork. The initial dose of 1 mg/kg orally twice per week (Monday/Thursday or Tuesday/Friday) was based on previous data from normal laboratory dogs (data not shown) and dose escalation was set at 0.25 mg/kg increments in cohorts of 3 until dose limiting toxicity (DLT) was identified. The DLT was considered to be any grade 3 or 4 hematologic or non-hematologic toxicity based on the established VCOG-CTCAE criteria. […] Disease progression or signs and symptoms definitely related to disease were not considered adverse events (AEs). The maximum tolerated dose (MTD) was considered to be one dose below that at which DLT occurred.
Tumor assessments were completed prior to study entry, and days 7, 14, 21, and 28. For dogs that continued beyond 4 weeks, response assessments were performed every 2 weeks thereafter, or at the time of suspected tumor progression. Responses were assessed by the investigator according to pre-defined protocol criteria. The response in dogs with assessable disease was performed by clinical examination, ultrasonography, or thoracic radiography. Many lesions were not amenable for quantitative radiographic imaging, but were followed either by serial clinical examination (superficial lesions; palpable lymph nodes) or by ultrasonography (abdominal lymph nodes). Thoracic lesions were assessed by thoracic radiography.
The response in dogs with measurable disease was judged by the investigator on the basis of Response Evaluation Criteria for Peripheral Nodal Lymphoma in dogs (v1.0). A complete response (CR) was defined as disappearance of all disease on two measurements separated by a minimum period of 3 weeks. A partial response (PR) was defined as greater than 30% reduction in the sum of the longest diameter of the target lesions documented by two assessments separated by at least 3 weeks. An increase of >20% in the size of all measurable tumor areas as measured by the sum of longest diameters of the target lesions taken as reference the smallest sum since initiation of therapy, or the appearance of any new lesion(s) would qualify as progressive disease (PD). […] Dogs who had no evidence of tumor progression and who had not experienced any unacceptable toxicity were eligible for extended treatment cycles. Dose escalation from twice per week administration to three times per week administration in an individual dog was permitted if the dog was tolerating therapy.

O=C(/C=C\n1cnc(-c2cc(C(F)(F)F)cc(C(F)(F)F)c2)n1)NNc1ccccn1 [KPT-335]
apoptotic cells (Annexin V+ cells) compared to mock treated cells (CLBL1 cells): increased apoptotic cells
apoptotic cells (Annexin V+ cells) compared to mock treated cells [1]: increased apoptotic cells
oral bioavailability (Oral bioavailability): excellent oral bioavailability
IC50 (OCI-Ly3 DLBCL cells): 2.1 ± 1.3 nM
clinical benefit (CB: PR or SD >4 weeks), dogs with NHL [2]: 9/14
clinical benefit, dogs with NHL [2]: 64%
duration of PR, individual dogs [2]: 71 days and 246 days
median TTP, responding dogs with NHL [2]: 66 days
median duration of treatment, dogs with NHL [2]: 10 weeks
range of duration of treatment, dogs with NHL [2]: 5–35 weeks
median duration of SD ([2]; 8 dogs with SD): 58.5 days
range of duration of SD ([2]; 8 dogs with SD): 28 to 84 days
TTP range, all dogs ([2]; 17 dogs): 14 to 246 days
dogs with PD in the first 4 weeks of therapy ([2]; 17 dogs): 7
median TTP, all dogs ([2]; 17 dogs): 35 days
stable disease (SD), number of dogs with NHL ([2]; SD for greater than 28 days): 7
stable disease (SD), number of dogs ([2]; all 17 dogs): 8
dose at which biologic activity was observed ([2]; lowest dose level): 1 mg/kg
